Test systems include NCI-H23 lung; UO-31 renal; HL-60(TB) leukemia; SW-620 colon; MOLT-4 leukemia; HCT-116 colon; DU-145 prostate; NCI-H522 lung; OVCAR-8 ovarian; SK-MEL-28 melanoma; HOP-62 NSCLC.
Common to all, as to assay: NCI anticancer screen, dose series, 48 h

“And” between values parts separate entries of the source, which are not always exact repeats. Equal values may be shown once.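 1) Cells in 96-well plates. 2) Compound, 48 h, 5 concentrations. 3) Linear interpolation between surrounding doses. 4) Unreached endpoint = highest concentration. GI50 is the concentration that inhibits growth by half. TGI: concentration producing complete growth inhibition.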 A value given as a limit tells only on which side of the number the result lay.

With `COc1ccc(NC(C)=O)c(C(=O)CCNC(C)=O)c1`, the TGI in the experiment on NCI-H23 lung, with UO-31 renal, in the experiment with HL-60(TB) leukemia, in the experiment on SW-620 colon, with MOLT-4 leukemia and in the experiment on HCT-116 colon was above 100 µM each time. Further, the TGI in the experiment with DU-145 prostate, in the experiment with NCI-H522 lung and with OVCAR-8 ovarian was above 100 µM each time.

Consider `COc1ccc(/C=N/n2c(Cc3ccc(Cl)cc3)n[nH]c2=O)cc1`, for which the TGI in the experiment with NCI-H23 lung, in the experiment with UO-31 renal, with SK-MEL-28 melanoma, in the experiment on SW-620 colon, in the experiment on MOLT-4 leukemia and in the experiment on HCT-116 colon was above 100 µM throughout. Further, the TGI was above 100 µM in the experiment with DU-145 prostate, 33.9 µM with HOP-62 NSCLC and 74.6 µM with OVCAR-8 ovarian.

On to `O=[N+]([O-])c1cccc2nc3ccccc3c(NCCNCCO)c12`, for which the TGI was 0.00448 µM in the experiment with NCI-H23 lung; 0.392 µM and 0.192 µM in the experiment on UO-31 renal; 0.109 µM in the experiment on HL-60(TB) leukemia; 0.177 µM and 0.202 µM with SK-MEL-28 melanoma; 0.0891 µM and 0.0113 µM in the experiment on MOLT-4 leukemia; 0.107 µM in the experiment with HCT-116 colon. For the same compound, the TGI was 0.0799 µM and 0.0174 µM in the experiment on HOP-62 NSCLC; 0.00272 µM with NCI-H522 lung; 0.158 µM and 0.0328 µM in the experiment with OVCAR-8 ovarian. Further, the GI50 in the experiment on UO-31 renal is 0.0448 µM; in the experiment with SK-MEL-28 melanoma, 0.0239 µM.

Take `COc1ccc(S(=O)Cc2cc(OC)ccc2OC)cc1` (configuration not stated): the TGI in the experiment on NCI-H23 lung, in the experiment on UO-31 renal, in the experiment with SK-MEL-28 melanoma, in the experiment on SW-620 colon, in the experiment on MOLT-4 leukemia and in the experiment on HCT-116 colon was above 100 µM each time. Also, the TGI in the experiment on DU-145 prostate, in the experiment with HOP-62 NSCLC, with NCI-H522 lung and in the experiment with OVCAR-8 ovarian was above 100 µM each time.

Consider `O=C1NC(N/N=C/C(O)C(O)C(O)C(O)CO)=N/C1=C\c1cccs1` (configuration not stated), for which the TGI with NCI-H23 lung, in the experiment with HL-60(TB) leukemia, with SK-MEL-28 melanoma, with SW-620 colon, in the experiment with MOLT-4 leukemia and in the experiment with HCT-116 colon was above 100 µM throughout. In addition, the TGI with DU-145 prostate, in the experiment on HOP-62 NSCLC, in the experiment on NCI-H522 lung and with OVCAR-8 ovarian was above 100 µM each time.

For `c1ccc(-c2cc(-c3cc(-c4ccccc4)n[nH]3)[nH]n2)cc1`, the TGI with NCI-H23 lung, with UO-31 renal, in the experiment on MOLT-4 leukemia, in the experiment with HCT-116 colon, in the experiment on DU-145 prostate and in the experiment with HOP-62 NSCLC was above 100 µM throughout. Also, the TGI in the experiment on NCI-H522 lung and in the experiment on OVCAR-8 ovarian was above 100 µM in each case.

On to `C/C(=N/NC(=S)N(Cc1ccccn1)Cc1ccccn1)c1cnccn1`, for which the TGI with NCI-H23 lung is 11.4 µM; in the experiment with UO-31 renal, 0.525 µM; with HL-60(TB) leukemia, above 68.2 µM; with SK-MEL-28 melanoma, above 61.8 µM; with SW-620 colon it was 49.2 µM; with MOLT-4 leukemia it was above 34.4 µM. Besides, the TGI is 14.2 µM in the experiment with HCT-116 colon, above 33.3 µM in the experiment with DU-145 prostate, 14.6 µM in the experiment with HOP-62 NSCLC and 1.56 µM in the experiment on NCI-H522 lung.

Take `Cc1[nH]n(-c2nc(O)c(C)c(=O)[nH]2)c(=O)c1CCO`: the TGI with NCI-H23 lung, with UO-31 renal, in the experiment on HL-60(TB) leukemia, in the experiment with SK-MEL-28 melanoma, in the experiment with SW-620 colon and with MOLT-4 leukemia was above 100 µM throughout. Besides, the TGI in the experiment with HCT-116 colon, in the experiment with DU-145 prostate, with NCI-H522 lung and in the experiment with OVCAR-8 ovarian was above 100 µM in each case.

In the case of `O=C(CN=C(CN(c1ccccc1)c1ccccc1)Oc1c([N+](=O)[O-])cc([N+](=O)[O-])cc1[N+](=O)[O-])N1CCNCC1`, the TGI in the experiment on NCI-H23 lung, with HL-60(TB) leukemia, in the experiment on SK-MEL-28 melanoma, with SW-620 colon, with MOLT-4 leukemia and with HCT-116 colon was above 100 µM throughout. Moreover, the TGI in the experiment on DU-145 prostate, in the experiment with HOP-62 NSCLC, in the experiment on NCI-H522 lung and in the experiment on OVCAR-8 ovarian was above 100 µM in each case.

On to `C(/C=N/NC1=NCCN1)=N\NC1=NCCN1`, for which the TGI was above 100 µM in the experiment with NCI-H23 lung; above 100 µM in the experiment on UO-31 renal; 34.2 µM in the experiment on HL-60(TB) leukemia; above 100 µM with SK-MEL-28 melanoma; above 100 µM in the experiment with SW-620 colon; above 100 µM in the experiment with MOLT-4 leukemia. The TGI with HCT-116 colon, in the experiment on HOP-62 NSCLC, in the experiment with NCI-H522 lung and with OVCAR-8 ovarian was above 100 µM each time.

In the case of `CCOC(=O)c1cc2cc(CSc3ccccc3)ccc2oc1=O`, the TGI in the experiment on NCI-H23 lung, with UO-31 renal, in the experiment on SK-MEL-28 melanoma, with SW-620 colon, in the experiment with MOLT-4 leukemia and in the experiment on HCT-116 colon was above 100 µM throughout. Moreover, the TGI in the experiment with DU-145 prostate, in the experiment with HOP-62 NSCLC, in the experiment on NCI-H522 lung and in the experiment on OVCAR-8 ovarian was above 100 µM in each case.

For the compound `Cc1ccc(-c2c(C#N)c(S)n(NS(=O)(=O)c3ccccc3)c(=O)c2C#N)cc1`, the TGI in the experiment on NCI-H23 lung was above 100 µM; in the experiment on UO-31 renal, 51.4 µM; with HL-60(TB) leukemia, 41.9 µM; in the experiment with SK-MEL-28 melanoma, above 100 µM; in the experiment on SW-620 colon, 70 µM; with MOLT-4 leukemia it was 61.1 µM. Moreover, the TGI was above 100 µM in the experiment on HCT-116 colon, above 100 µM in the experiment on DU-145 prostate, 52.3 µM with NCI-H522 lung and 55.9 µM in the experiment with OVCAR-8 ovarian.

In the case of `Cc1ccc(NC(=S)NNC(=O)c2cc(-c3ccccc3)nc3ccccc23)cc1C`, the TGI with NCI-H23 lung is 48.2 µM; in the experiment with UO-31 renal, 36.3 µM; in the experiment on SK-MEL-28 melanoma, 78.8 µM; in the experiment on SW-620 colon, above 100 µM; in the experiment with MOLT-4 leukemia, 53.3 µM; in the experiment with HCT-116 colon, 36.9 µM. The TGI with DU-145 prostate is 45.4 µM; in the experiment with HOP-62 NSCLC it was 54.8 µM; in the experiment with NCI-H522 lung, 50.8 µM; in the experiment on OVCAR-8 ovarian, 44.5 µM.

As for `O=C(/C=C/c1ccc(Cl)c(Cl)c1)CCN1CCN(CCC(=O)/C=C/c2ccc(Cl)c(Cl)c2)CC1`, the TGI with UO-31 renal was 32.6 µM; in the experiment with HL-60(TB) leukemia it was above 100 µM; in the experiment with SK-MEL-28 melanoma it was 46.3 µM; with SW-620 colon, 52.1 µM; in the experiment with MOLT-4 leukemia, above 100 µM; in the experiment with HCT-116 colon, 23.8 µM. The TGI in the experiment on DU-145 prostate was 54.4 µM; in the experiment with HOP-62 NSCLC, 60.6 µM; with NCI-H522 lung, 31.6 µM; in the experiment on OVCAR-8 ovarian, above 100 µM.

For the origin of these results see PubChem BioAssay (NCI).
